Data from the supplement of paper PMC10307832.

Key:
[1] = compound: C[C@@H](C(=O)N[C@@H](C1CCCCC1)C(=O)N2CCC[C@H]2C(=O)N[C@@H]3[C@@H](CC4=CC=CC=C34)OCC#CC#CCO[C@@H]5CC6=CC=CC=C6[C@@H]5NC(=O)[C@@H]7CCCN7C(=O)[C@H](C8CCCCC8)NC(=O)[C@H](C)NC)NC [AZD5582]; experiment: relative viability (nuclei count vs DMSO), 5 days (fraction); higher = more cells survive
Summary of the method: (§1)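 Viability was read as treated-well nuclei divided by vehicle-well nuclei, using the median across plates. Lung cancer cell lines in 1536-well plates were kept overnight at 37 °C, pinned with five √10-spaced library-drug doses, and after 5 days were Hoechst-stained, imaged at 4× and counted in MetaXpress. Plates passed only with control CV below 25% and at least one doubling.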

[2] = compound: Cn1nnc2c(C(N)=O)ncn2c1=O [Temozolomide]; experiment: as above
Summary of the method: as §1

Cell Line	relative viability ([1]; 0.001581 µM)	relative viability ([1]; 0.005 µM)	relative viability ([1]; 0.01581 µM)	relative viability ([1]; 0.05 µM)	relative viability ([2]; 0.2 µM)	relative viability ([2]; 0.6325 µM)	relative viability ([2]; 2 µM)	relative viability ([2]; 6.325 µM)	relative viability ([2]; 20 µM)
201T	1.03	1.15	0.971	1.21	0.978	1	1.01	0.961	0.977
A549	0.876	1.01	0.928	0.999	1.04	1.02	0.986	0.913	0.998
A-427	0.917	0.971	0.882	0.721	1.04	0.996	1.03	0.713	0.46
ABC-1	0.898	1.03	0.767	0.936	1.07	0.925	1.08	0.958	1.02
BEN	0.926	1.01	1.05	0.828	0.956	0.94	1.03	0.813	0.766
CAL-12T	0.647	0.724	0.784	0.551	0.908	1.04	0.959	0.95	0.95
COR-L23	1.02	1.11	0.966	1.03	1.19	1.04	1.05	1.04	0.955
COR-L 105	0.936	1.11	0.876	1.02	0.895	1.02	0.993	0.883	0.507
Calu-6	0.83	0.724	0.989	0.573	1.08	1	1.07	0.954	0.99
ChaGo-K-1	0.978	1.02	0.971	0.975	1.06	0.983	1.08	0.933	0.928
EBC-1	0.867	0.95	0.964	0.948	0.997	1.01	1.06	0.917	1.09
EKVX	0.957	1.13	0.794	1.01	0.618	0.97	0.967	0.921	0.66
EMC-BAC-2	0.835	0.993	0.791	0.891	1.07	1.07	1.03	0.943	1
EPLC-272H	0.263	–	0.55	0.116	0.98	0.972	0.997	0.859	0.677
H3255	0.94	1	0.862	0.831	–	0.96	0.993	0.884	0.231
HARA	0.974	1.1	0.746	0.662	0.979	1.02	1.05	0.886	0.831
HCC-15	0.862	0.933	0.739	0.847	1.12	1.01	1	0.996	1.07
HCC-44	0.822	0.724	0.872	0.483	1.02	0.986	0.987	0.999	1.01
HCC-78	0.85	1.08	0.834	0.746	0.762	0.937	1.04	0.906	0.931

Cell Line	relative viability ([1]; 0.001581 µM)	relative viability ([1]; 0.005 µM)	relative viability ([1]; 0.01581 µM)	relative viability ([1]; 0.05 µM)	relative viability ([2]; 0.2 µM)	relative viability ([2]; 0.6325 µM)	relative viability ([2]; 2 µM)	relative viability ([2]; 6.325 µM)	relative viability ([2]; 20 µM)
HCC-366	0.978	1.02	0.978	1.08	0.939	1	1.08	0.987	0.992
HCC-827	1.03	1.07	0.991	0.993	1.08	1.05	1.05	1	0.177
HOP-62	0.875	1.03	1.04	1.06	1.11	0.997	1.04	0.926	1.01
IA-LM	0.77	0.86	0.828	0.897	1.11	0.94	1	0.961	0.951
LC-2-ad	0.997	1.09	0.965	1.03	1.06	1.09	1.04	0.971	0.78
LCLC-97TM1	0.797	1.06	0.644	0.525	1.15	0.985	0.764	0.83	1.1
LCLC-103H	1.02	1.14	0.852	1.01	0.995	1	1.06	0.928	0.92
LK-2	0.766	1.07	0.876	1.23	0.997	1.06	0.961	0.645	0.407
LOU-NH91	0.924	0.944	0.882	0.925	0.856	0.979	0.993	0.926	0.786
LU99A	1.07	1.02	0.954	1.11	1.06	0.946	1.03	0.97	1.03
LXF-289	0.958	1.01	0.968	1	1.04	0.959	1.01	1.03	0.892
NCI-H23	0.782	0.848	0.477	0.519	1.2	1.03	0.994	0.909	0.993
NCI-H322M	1.02	1.15	0.938	1.03	–	0.931	1	0.957	0.577
NCI-H358	0.915	1.17	0.944	0.972	0.855	1.02	1	0.904	0.777
NCI-H441	0.77	0.954	0.869	0.982	1.25	1.06	1.29	0.997	1.15
NCI-H460	0.958	0.991	0.965	1.1	1.02	0.998	1	1.03	1.1
NCI-H520	0.955	1.05	0.947	1.1	1.06	0.999	1.13	0.981	0.97
NCI-H522	0.841	1	0.957	0.795	0.842	0.985	1.02	0.998	0.915
